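48-hour exposure; five concentrations; linearly interpolated endpoints. The concentration for 50% growth inhibition is given as GI50. TGI is the concentration that stops growth completely.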
What was measured:
Assay in all cases: growth of human tumour cells (NCI), 48 h
[1] = test system: K-562 leukemia
[2] = test system: SW-620 colon
[3] = test system: CCRF-CEM leukemia
[4] = test system: PC-3 prostate
[5] = test system: SNB-75 CNS
[6] = test system: SR leukemia
[7] = test system: HT29 colon
[8] = test system: LOX IMVI melanoma
[9] = test system: SK-MEL-5 melanoma
[10] = test system: U251 CNS

SMILES: CSc1ccc(-c2ccccc(=O)c2O)cc1
- GI50 [1]: 0.447 µM
- TGI [1]: > 100 µM
- GI50 [2]: 0.386 µM
- TGI [2]: > 100 µM
- GI50 [3]: 0.347 µM
- TGI [3]: > 100 µM
- GI50 [4]: 0.748 µM
- TGI [4]: > 100 µM
- GI50 [5]: 3.12 µM
- TGI [5]: > 100 µM
- GI50 [6]: 0.404 µM
- TGI [6]: 14.5 µM
- GI50 [7]: 0.714 µM
- TGI [7]: > 100 µM
- GI50 [8]: 0.336 µM
- TGI [8]: 17.1 µM
- GI50 [9]: 0.413 µM
- TGI [9]: 5.05 µM
- GI50 [10]: 0.568 µM
- TGI [10]: 24.6 µM

SMILES: Cc1c(O)c2ccccc2oc1=O
- TGI [1]: > 100 µM
- TGI [2]: > 100 µM
- TGI [3]: > 100 µM
- TGI [4]: > 100 µM
- TGI [5]: > 100 µM
- TGI [6]: > 100 µM
- TGI [7]: > 100 µM
- TGI [8]: > 100 µM
- TGI [9]: > 100 µM
- TGI [10]: > 100 µM

SMILES: CC1(C)N=C(N)N=C(N)N1c1ccc(CCCCc2ccccc2)c(Cl)c1
- GI50 [1]: 0.0256 µM
- TGI [1]: > 51.2 µM
- GI50 [2]: < 0.01 µM
- TGI [2]: 5.97 µM
- GI50 [3]: 0.0374 µM
- TGI [3]: 14.2 µM
- GI50 [4]: < 0.0172 µM
- TGI [4]: 6.88 µM
- GI50 [5]: 0.124 µM
- TGI [5]: 5.87 µM
- GI50 [6]: 0.0259 µM
- TGI [6]: 5.81 µM
- GI50 [7]: < 0.01 µM
- TGI [7]: 1.55 µM
- GI50 [8]: 0.0131 µM
- TGI [8]: 1.52 µM
- GI50 [9]: 0.0628 µM
- TGI [9]: 1.32 µM
- GI50 [10]: < 0.01 µM
- TGI [10]: 1.83 µM

SMILES: Cc1cc(Nc2ccc(OCc3ccccc3)cc2)nc2cc(O)ccc12
- GI50 [1]: 1.09 µM
- TGI [1]: 14.9 µM
- GI50 [2]: 5.12 µM
- TGI [2]: 19.4 µM
- GI50 [3]: 3.01 µM
- TGI [3]: 20.7 µM
- GI50 [4]: 3.46 µM
- TGI [4]: 18 µM
- GI50 [5]: 2.4 µM
- TGI [5]: 11.2 µM
- GI50 [6]: 3.26 µM
- TGI [6]: 13.8 µM
- GI50 [7]: 3.86 µM
- TGI [7]: 14.9 µM
- GI50 [8]: 2.47 µM
- TGI [8]: 6.47 µM
- GI50 [9]: 1.68 µM
- TGI [9]: 3.2 µM
- GI50 [10]: 4.54 µM
- TGI [10]: 17.5 µM

— PubChem BioAssay (NCI)
